In patent US7816074B2, “α4 β2 δGABA-A receptors as a strategy for PMS and alcoholism” (priority 2003, dated 2010):

Columns and labels:
[1] = tested on: α1β2δ receptors (oocytes injected with α1+β2+δ); type: cell-based, rat α1, rat β2, human δ, expressed in Xenopus laevis oocytes; settings: oocytes injected with α1+β2+δ
From the text: (§1) Plasmids with inserts encoding GABAA receptor subunit sequence for rat α1 (62), rat β2 (83), rat α2 (62), rat α5 (62), mouse α4 (37), mouse β3 (82), rat β1 (83), rat γ2S (63), human δ (12), and human ε (11) were produced by subcloning each separately into an appropriate cloning vehicle such as PCDM8, pCDNA3.1 or pGHEMHE vectors (Invitrogen, Carlsbad Calif.) using a T7 promoter and standard subcloning techniques (59). Plasmids were linearized with an appropriate restriction enzyme at a site 3′ to the insert and cRNAs were synthesized using T3 or T7 polymerase (mMessage mMachine, Ambion, Tex.). The size of the cRNA was verified and RNA was quantified by ethidium bromide staining after electrophoresis on 1% agarose gels.
The preparation, injection, and maintenance of oocytes were carried out as described previously (78). Oocytes were injected with receptor subunit cRNAs (2 to 20 ng) in the following ratios: α1:β1:γ2S, α1:β2:γ2S and α1:β1:ε1, 1:1:1; α2:β1:γ2S, α5:β1:γ2S, α4:β1:γ2S, and α4:β2:γ2S, 10:1:1; α4:β1:δ, α4:β2:δ, α4:β3δ, 10:1:10; α1:β2:δ, 1:1:10 or 1:0.5:3; α1:β1:δ, 1:1:10 or 1:0.5:3; α2:β1:δ and α2:β2:δ, 1:0.5:3; α1:β1, α1:β2, α2:β1, α2:β2, β2:γ2S and α4δ, 1:1, α4:β1, α4:β2, α4:β3, 10:1, β2δ, 1:10.
Voltage-clamp recording was carried out 1 to 3 days after injection of cRNAs. Electrodes were filled with 3 M KCl and had resistances of 0.4-4 MΩ. Oocytes were positioned in a small Perspex chamber and continuously superfused with a saline solution (100 mM NaCl, 2 mM KCl, 1.8 mM CaCl2, 10 mM HEPES, pH 7.5). Agonists and modulators were both applied in the same saline solution. Oocytes were voltage-clamped at −70 mV and macroscopic currents were recorded with a two-electrode voltage-clamp using a Warner Instruments OC-725 amplifier as described previously (79). Currents were recorded on a chart recorder or by using Axograph on a Macintosh computer.
Other subunits (α1, α2, β1, β2) were tested for co-expression with the δ subunit. […]

[2] = target: T1, α1β2 receptors (Rattus norvegicus, UniProt P62813+P63138); assay: Two-electrode voltage-clamp of recombinant GABAA receptors in oocytes; type: cell-based, expressed in Xenopus laevis oocytes; settings: oocytes injected with α1+β2
T1 construct: expressed in transfected cells; host or cells: oocytes injected with cRNA (Xenopus laevis is named only)
T1 sequence (P62813 28-455): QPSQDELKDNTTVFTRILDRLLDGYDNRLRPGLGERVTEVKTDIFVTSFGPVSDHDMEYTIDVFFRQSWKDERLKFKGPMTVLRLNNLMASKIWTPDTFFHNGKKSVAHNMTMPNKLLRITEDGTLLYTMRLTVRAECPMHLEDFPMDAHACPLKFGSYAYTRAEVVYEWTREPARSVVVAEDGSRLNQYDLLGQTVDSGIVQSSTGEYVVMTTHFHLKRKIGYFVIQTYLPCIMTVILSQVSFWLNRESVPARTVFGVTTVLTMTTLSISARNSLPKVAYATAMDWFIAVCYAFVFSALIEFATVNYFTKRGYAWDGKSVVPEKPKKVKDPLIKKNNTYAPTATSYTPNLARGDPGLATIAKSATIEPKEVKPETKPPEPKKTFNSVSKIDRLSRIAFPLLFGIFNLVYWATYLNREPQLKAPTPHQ
T1 sequence (P63138 25-474 limits assumed): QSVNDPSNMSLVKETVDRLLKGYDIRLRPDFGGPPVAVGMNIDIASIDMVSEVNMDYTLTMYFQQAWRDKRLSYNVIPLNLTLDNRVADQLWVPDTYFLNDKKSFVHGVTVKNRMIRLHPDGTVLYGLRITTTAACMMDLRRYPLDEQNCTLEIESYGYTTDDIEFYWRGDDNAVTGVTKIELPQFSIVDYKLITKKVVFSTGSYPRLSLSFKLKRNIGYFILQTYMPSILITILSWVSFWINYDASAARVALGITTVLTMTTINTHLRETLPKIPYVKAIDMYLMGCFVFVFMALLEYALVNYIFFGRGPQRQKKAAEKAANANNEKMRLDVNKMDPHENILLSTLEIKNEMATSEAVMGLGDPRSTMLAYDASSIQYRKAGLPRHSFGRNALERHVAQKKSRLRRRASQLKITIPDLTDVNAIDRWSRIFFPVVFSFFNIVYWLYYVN
From the text: as §1
The preparation, injection, and maintenance of oocytes were carried out as described previously (78). […]
Voltage-clamp recording was carried out 1 to 3 days after injection of cRNAs. […] Oocytes were voltage-clamped at −70 mV and macroscopic currents were recorded with a two-electrode voltage-clamp using a Warner Instruments OC-725 amplifier as described previously (79). Currents were recorded on a chart recorder or by using Axograph on a Macintosh computer. […]

What does the source list for `CCO` [ethanol]?
responses to GABA in presence of alcohol, % of control [1]: 88-95 % of control; responses to GABA in presence of alcohol, % of control [2]: 88-95 % of control
